Reference: PubChem BioAssay (NCI)
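Abbreviation: GI50, concentration required for 50% inhibition of growth. The concentration for full growth arrest is given as TGI.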

Assays:
Assay in all cases: NCI tumour cell line growth inhibition, 384-well format
OVCAR-8 ovarian = system: OVCAR-8 ovarian
PC-3 prostate = system: PC-3 prostate
KM12 colon = system: KM12 colon
T-47D breast = system: T-47D breast
M14 melanoma = system: M14 melanoma
BT-549 breast = system: BT-549 breast
MCF7 breast = system: MCF7 breast
HOP-92 NSCLC = system: HOP-92 NSCLC
NCI-H23 lung = system: NCI-H23 lung
HCC-2998 colon = system: HCC-2998 colon
SF-539 CNS = system: SF-539 CNS
MALME-3M melanoma = system: MALME-3M melanoma
SNB-75 CNS = system: SNB-75 CNS
A549 NSCLC = system: A549 NSCLC
TK-10 renal = system: TK-10 renal
SW-620 colon = system: SW-620 colon
OVCAR-3 ovarian = system: OVCAR-3 ovarian
UO-31 renal = system: UO-31 renal
MDA-MB-435 melanoma = system: MDA-MB-435 melanoma
HL-60(TB) leukemia = system: HL-60(TB) leukemia
RXF 393 renal = system: RXF 393 renal
SR leukemia = system: SR leukemia
SK-OV-3 ovarian = system: SK-OV-3 ovarian
HCT-15 colon = system: HCT-15 colon
HT29 colon = system: HT29 colon
SK-MEL-28 melanoma = system: SK-MEL-28 melanoma
K-562 leukemia = system: K-562 leukemia
UACC-62 melanoma = system: UACC-62 melanoma
786-0 renal = system: 786-0 renal
SN12C renal = system: SN12C renal
MDA-MB-231 breast = system: MDA-MB-231 breast
NCI-H460 NSCLC = system: NCI-H460 NSCLC
NCI-H322M lung = system: NCI-H322M lung
SNB-19 CNS = system: SNB-19 CNS
OVCAR-4 ovarian = system: OVCAR-4 ovarian
DU-145 prostate = system: DU-145 prostate
CAKI-1 renal = system: CAKI-1 renal
LOX IMVI melanoma = system: LOX IMVI melanoma
SK-MEL-5 melanoma = system: SK-MEL-5 melanoma
MOLT-4 leukemia = system: MOLT-4 leukemia
A498 renal = system: A498 renal
HS 578T breast = system: HS 578T breast
NCI-H522 lung = system: NCI-H522 lung
SF-295 CNS = system: SF-295 CNS
OVCAR-5 ovarian = system: OVCAR-5 ovarian
ACHN renal = system: ACHN renal
EKVX NSCLC = system: EKVX NSCLC
CCRF-CEM leukemia = system: CCRF-CEM leukemia
COLO 205 colon = system: COLO 205 colon
RPMI-8226 leukemia = system: RPMI-8226 leukemia
NCI/ADR-RES ovarian = system: NCI/ADR-RES ovarian
HOP-62 NSCLC = system: HOP-62 NSCLC
SF-268 CNS = system: SF-268 CNS
MDA-MB-468 breast = system: MDA-MB-468 breast
IGROV1 ovarian = system: IGROV1 ovarian

O=C(NCCCc1cn[nH]c1)c1ccc(-c2ccncc2)c(C#Cc2ccc(F)cc2)c1
GI50 (OVCAR-8 ovarian): < 0.01 µM | TGI (OVCAR-8 ovarian): < 0.01 µM | GI50 (PC-3 prostate): < 0.01 µM | TGI (PC-3 prostate): < 0.01 µM | GI50 (KM12 colon): < 0.01 µM | TGI (KM12 colon): < 0.01 µM | GI50 (T-47D breast): < 0.01 µM | TGI (T-47D breast): < 0.01 µM | GI50 (M14 melanoma): < 0.01 µM | TGI (M14 melanoma): < 0.01 µM | GI50 (BT-549 breast): < 0.01 µM | TGI (BT-549 breast): < 0.01 µM | GI50 (MCF7 breast): 0.013 µM | TGI (MCF7 breast): 0.0269 µM | GI50 (HOP-92 NSCLC): < 0.01 µM | TGI (HOP-92 NSCLC): < 0.01 µM | GI50 (NCI-H23 lung): < 0.01 µM | TGI (NCI-H23 lung): < 0.01 µM | GI50 (HCC-2998 colon): < 0.01 µM | TGI (HCC-2998 colon): < 0.01 µM | GI50 (SF-539 CNS): < 0.01 µM | TGI (SF-539 CNS): < 0.01 µM | GI50 (MALME-3M melanoma): < 0.01 µM | TGI (MALME-3M melanoma): < 0.01 µM | GI50 (SNB-75 CNS): < 0.01 µM | TGI (SNB-75 CNS): < 0.01 µM | GI50 (A549 NSCLC): < 0.01 µM | TGI (A549 NSCLC): < 0.01 µM | GI50 (TK-10 renal): < 0.01 µM | TGI (TK-10 renal): < 0.01 µM | GI50 (SW-620 colon): < 0.01 µM | TGI (SW-620 colon): < 0.01 µM | GI50 (OVCAR-3 ovarian): < 0.01 µM | TGI (OVCAR-3 ovarian): < 0.01 µM | GI50 (UO-31 renal): < 0.01 µM | TGI (UO-31 renal): < 0.01 µM | GI50 (MDA-MB-435 melanoma): < 0.01 µM | TGI (MDA-MB-435 melanoma): < 0.01 µM | GI50 (HL-60(TB) leukemia): < 0.01 µM | TGI (HL-60(TB) leukemia): < 0.01 µM | GI50 (RXF 393 renal): < 0.01 µM | TGI (RXF 393 renal): < 0.01 µM | GI50 (SR leukemia): < 0.01 µM | TGI (SR leukemia): < 0.01 µM | GI50 (SK-OV-3 ovarian): < 0.01 µM | TGI (SK-OV-3 ovarian): < 0.01 µM | GI50 (HCT-15 colon): < 0.01 µM | TGI (HCT-15 colon): < 0.01 µM | GI50 (HT29 colon): < 0.01 µM | TGI (HT29 colon): < 0.01 µM | GI50 (SK-MEL-28 melanoma): < 0.01 µM | TGI (SK-MEL-28 melanoma): < 0.01 µM | GI50 (K-562 leukemia): < 0.01 µM | TGI (K-562 leukemia): < 0.01 µM | GI50 (UACC-62 melanoma): < 0.01 µM | TGI (UACC-62 melanoma): < 0.01 µM | GI50 ([…]-0 renal): < 0.01 µM | TGI (786-0 renal): < 0.01 µM | GI50 (SN12C renal): < 0.01 µM | TGI (SN12C renal): < 0.01 µM | GI50 (MDA-MB-231 breast): < 0.01 µM | TGI (MDA-MB-231 breast): < 0.01 µM | GI50 (NCI-H460 NSCLC): < 0.01 µM | TGI (NCI-H460 NSCLC): 0.0135 µM | GI50 (NCI-H322M lung): < 0.01 µM | TGI (NCI-H322M lung): < 0.01 µM | GI50 (SNB-19 CNS): < 0.01 µM | TGI (SNB-19 CNS): < 0.01 µM | GI50 (OVCAR-4 ovarian): < 0.01 µM | TGI (OVCAR-4 ovarian): < 0.01 µM | GI50 (DU-145 prostate): < 0.01 µM | TGI (DU-145 prostate): < 0.01 µM | GI50 (CAKI-1 renal): < 0.01 µM | TGI (CAKI-1 renal): < 0.01 µM | GI50 (LOX IMVI melanoma): < 0.01 µM | TGI (LOX IMVI melanoma): 0.0156 µM | GI50 (SK-MEL-5 melanoma): < 0.01 µM | TGI (SK-MEL-5 melanoma): < 0.01 µM | GI50 (MOLT-4 leukemia): < 0.01 µM | TGI (MOLT-4 leukemia): < 0.01 µM | GI50 (A498 renal): < 0.01 µM | TGI (A498 renal): 0.252 µM | GI50 (HS 578T breast): < 0.01 µM | TGI (HS 578T breast): < 0.01 µM | GI50 (NCI-H522 lung): < 0.01 µM | TGI (NCI-H522 lung): < 0.01 µM | GI50 (SF-295 CNS): < 0.01 µM | TGI (SF-295 CNS): < 0.01 µM | GI50 (OVCAR-5 ovarian): < 0.01 µM | TGI (OVCAR-5 ovarian): < 0.01 µM | GI50 (ACHN renal): < 0.01 µM | TGI (ACHN renal): < 0.01 µM | GI50 (EKVX NSCLC): < 0.01 µM | TGI (EKVX NSCLC): < 0.01 µM | GI50 (CCRF-CEM leukemia): < 0.01 µM | TGI (CCRF-CEM leukemia): < 0.01 µM | GI50 (COLO 205 colon): < 0.01 µM | TGI (COLO 205 colon): < 0.01 µM | GI50 (RPMI-8226 leukemia): < 0.01 µM | TGI (RPMI-8226 leukemia): < 0.01 µM | GI50 (NCI/ADR-RES ovarian): < 0.01 µM | TGI (NCI/ADR-RES ovarian): < 0.01 µM | GI50 (HOP-62 NSCLC): < 0.01 µM | TGI (HOP-62 NSCLC): < 0.01 µM | GI50 (SF-268 CNS): < 0.01 µM | TGI (SF-268 CNS): < 0.01 µM | GI50 (MDA-MB-468 breast): < 0.01 µM | TGI (MDA-MB-468 breast): < 0.01 µM | GI50 (IGROV1 ovarian): < 0.01 µM | TGI (IGROV1 ovarian): < 0.01 µM
